Data reported in ChEMBL document CHEMBL1126818, “Isosteric replacement in a series of -substituted monophosphonate calcium antagonists” (Bioorg Med Chem Lett, 1993).

Assays:
[1] = The compound was tested in vitro for its ability to displace [3H]PN-200-110 from rat brain membranes; type: tissue-based, Membrane
[2] = species on record: Rattus norvegicus; test: Inhibition of contractions induced by K+ depolarization in rat dorsal aorta; type: functional
[3] = The compound was tested in vitro for its ability to displace [3H]PN-200-110 from Calcium Channel in rat brain membranes.; type: cell membranes

Ki [1]	Ki [3]	SMILES	Kb [2]
> 1 µM		CCCCOP(=O)(CC(CCc1ccccc1)OS(C)(=O)=O)OCCCC (configuration not stated)	> 1 µM
	> 1 µM	CCCCOP(=O)(CC(CCc1ccccc1)OC(=O)C(C)(C)C)OCCCC (configuration not stated)	0.105 µM
	> 1 µM	CCCCOP(=O)(CC(CCc1ccccc1)OC(=O)C1CC1)OCCCC (configuration not stated)	0.628 µM
	> 1 µM	CCCCNC(=O)OC(CCc1ccccc1)CP(=O)(OCCCC)OCCCC (configuration not stated)	0.038 µM
	0.56 µM	CCCCCC(=O)OC(Cc1ccccc1)CP(=O)(OCCCC)OCCCC (configuration not stated)	0.211 µM
	> 1 µM	CCCCNC(=O)NC(CCc1ccccc1)CP(=O)(OCCCC)OCCCC (configuration not stated)	0.129 µM
	> 1 µM	CCCCOC(=O)OC(CCc1ccccc1)CP(=O)(OCCCC)OCCCC (configuration not stated)	0.255 µM
		CCOP(=O)(Cc1ccc(-c2nc3ccccc3s2)cc1)OCC [FOSTEDIL]	> 1 µM
	> 1 µM	CCCCOP(=O)(CC(CCc1ccccc1)NP(=O)(OCC)OCC)OCCCC (configuration not stated)	0.062 µM
	0.055 µM	CCCCOP(=O)(CC(CCc1ccccc1)OC(C)=O)OCCCC (configuration not stated)	0.025 µM
	0.023 µM	CCCCOP(=O)(CC(CCOc1ccccc1)CP(=O)(OCCCC)OCCCC)OCCCC [BELFOSDIL]	0.0005 µM
	0.385 µM	CCCCOP(=O)(CC(CCc1ccccc1)OP(=O)(OCCCC)OCCCC)OCCCC (configuration not stated)	0.076 µM
	> 1 µM	CCCCCC(=O)OC(CCCc1ccccc1)CP(=O)(OCCCC)OCCCC (configuration not stated)	> 1 µM
	> 1 µM	CCCCOP(=O)(CC(CCc1ccccc1)OC(=O)c1ccccc1)OCCCC (configuration not stated)	0.662 µM
	> 1 µM	CCCCOC(=O)NC(CCc1ccccc1)CP(=O)(OCCCC)OCCCC (configuration not stated)	0.122 µM
	0.051 µM	CCCCCC(=O)OC(CCc1ccccc1)CP(=O)(OCCCC)OCCCC (configuration not stated)	0.0066 µM
	> 1 µM	CCCCOP(=O)(CC(CCc1ccccc1)OC(=O)C(F)(F)F)OCCCC (configuration not stated)	> 1 µM
	> 1 µM	CCCCOP(=O)(CC(CCc1ccccc1)NS(=O)(=O)c1ccc(C)cc1)OCCCC (configuration not stated)	0.348 µM

SMILES	Ki [1]	Ki [3]	Kb [2]
COC(=O)C1=C(C)NC(C)=C(C(=O)OC)C1c1ccccc1[N+](=O)[O-] [NIFEDIPINE]		0.00053 µM	0.0005 µM
